Source: patent publication US20240400986A1, “MEMBRANE BOUND COMPOSITIONS AND METHODS RELATING TO SAME” (FLAGSHIP PIONEERING INNOVATIONS VII, LLC, priority 2021, published 2024)
Structures can show the parent of a compound that is named as a salt. Where two headings read alike, the source gives them in different places.

Key:
[1] = system: cardiomyocytic cell line derived from human ventricular heart tissue; test: Cell viability in cardiomyocyte compound screen (CellTiter-Glo); type: cell-based
Excerpt: Cells were stained with Hoechst 34580, CellTracker Green/CellMask Green Actin and MitoTracker Deep Red to detect nuclear material, cytoplasm/F-actin, and mitochondria, respectively, and cultured in poly-L-lysine-coated 96-well glass bottom plates at 15,800 cells/cm^2 and allowed to adhere overnight. For the screening, a total of 100 randomly organized compounds (TargetMol) were divided in 5 groups. Each group included an untreated condition, a vehicular DMSO control, and a known high-gigasome producing condition to comparatively study gigasome production rates. As a cell death control group, 500 nM Staurosporine was added to induce apoptosis. Cultures were incubated for 24 hours under gigasome inducing conditions at concentrations ranging between 10 nM and 10,000 nM. […] Cells remaining in the 96-well plates were assessed for viability using CellTiter-Glo (Promega).

[2] = system: cardiomyocytic cell line derived from human ventricular heart tissue; test: Small molecule compound screen of gigasome production in cardiomyocytic monocultures;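 as to all read-outs here: gigasomes shed into the culture medium were imaged by confocal microscopy and counted as round particles lacking nuclear signal, extrapolated to the whole well, fold change is relative to DMSO vehicle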; conditions: for fold induction at 1 µM / fold induction at 0.01 µM / fold induction at 0.1 µM / fold induction at 10 µM: Homo sapiens, Cardiomyocyte, read-out: Fold Change of Gigasomes Produced vs. DMSO
[3] = system: neuronal cell line derived from human neuroblastoma
[4] = system: neuronal cell line derived from human neuroblastoma; test: Small molecule compound screen of gigasome production in neuronal monocultures; conditions: for Number of Gigasomes Produced: neuronal cells, 24 hours
Excerpt: To quantify and characterize gigasome production using microscopy, while tracking cell viability/phenotype, a multi-readout system was developed that allowed simultaneous analysis of gigasomes harvested from cell culture media supernatants and respective gigasome producing cell viability. […] For the screening, a total of 99 compounds (TargetMol) were divided in 5 groups. Each group included an untreated condition, a vehicular DMSO control, and a known high-gigasome producing condition to comparatively study gigasome production rates. As a cell death control group, 500 nM Staurosporine was added to induce apoptosis. Cultures were incubated for 24 hours under gigasome inducing conditions at concentrations ranging between 10 nM and 10,000 nM. Before the end of the treatment, live neuronal cultures were imaged. The Zeiss ZEN Blue software was used to distribute imaging fields of view (positions) to create an unbiased imaging sample of a well. 5 images were taken using a Zeiss LSM 900 confocal microscope. […] The BioApps ZEN software package was used to perform cell nucleus segmentation and counting. After 24 hours, gigasomes were harvested from the cell culture media by gently removing from the top of each 96-well ⅔ of the total volume without disturbing the cell layer (containing the settled gigasomes) and by adding to each well the same amount of PBS. The wells were washed twice gently, and the gigasome-containing media/PBS wash was transferred into the well of a 384-well glass bottom plate. Cells remaining in the 96-well plates were assessed for viability using CellTiter-Glo (Promega).
For gigasome analysis in 384-well plates, the Zeiss ZEN Blue software was used to distribute positions to create an unbiased imaging sample of a well. 6 images per well were taken using a Zeiss LSM 900 confocal microscope.
A watershed binary segmentation step was performed to separate grouped objects. For each particle in the mask, characteristic parameters of the particle were calculated and saved.
Particles of interest were identified by thresholding by area and circularity. […] Circularity, defined by the formula 4pi(area/perimeter^2, was set to be between 0.8 and 1, where a value of 1.0 is a perfect circle, and a value of 0 is a line. Gigasomes were identified from the particles of interest by thresholding by mean nuclear signal. The nuclear signal threshold was set using a value equal to one fourth of a threshold value calculated by the Li auto-threshold algorithm applied to the distribution of all particles of interest. Particles of interest with nuclear signal below this value were considered “negative” for nuclear material and were identified as gigasomes. A sampling factor was calculated to extrapolate the total quantity of a type of object (particles, particles of interest, gigasomes) in the well. The sampling factor was the percentage of the well's area that was imaged. […] The normalized quantity or distribution of objects was described as a quantity or distribution of objects per 1000 cells.

[5] = Table 22, dose 1000 nM, cardiomyocytes, 24 hours
[6] = Table 22, dose 10 nM, cardiomyocytes, 24 hours
[7] = Table 22, dose 100 nM, cardiomyocytes, 24 hours
[8] = neuronal cells, dose 10 nM, 24 hours
[9] = neuronal cells, dose 100 nM, 24 hours
[10] = neuronal cells, dose 10000 nM, 24 hours
[11] = Homo sapiens, 24 h, read-out: Fold Change of Gigasomes Produced vs. DMSO
[12] = Table 23 (down-regulators), dose 10 nM, cardiomyocytes
[13] = Table 23 (down-regulators), dose 100 nM, cardiomyocytes
[14] = Table 23 (down-regulators), dose 1000 nM, cardiomyocytes
[15] = Table 23 (down-regulators), dose 10000 nM, cardiomyocytes
[16] = Table 22, dose 10000 nM, cardiomyocytes, 24 hours

SMILES: COC(=O)C=Cc1ccccc1 [Methyl cinnamate]
- Viability ([1]; human, 24 h, 1000 nM): >75%
- fold induction at 1 µM ([2]; 24 h): 1.25 to 1.5
- Number of Gigasomes Produced [2, 5]: 150-175

SMILES: CC[C@@]1([C@@H]2O[C@@H]([C@H]3O[C@@](O)(CO)[C@H](C)C[C@@H]3C)C[C@@H]2C)CC[C@H]([C@]2(C)CC[C@]3(C[C@H](O)[C@@H](C)[C@@H]([C@@H](C)[C@@H](OC)[C@H](C)C(=O)O)O3)O2)O1 [Monensin sodium salt]
- Viability [1, 6]: >75%
- Viability [1, 7]: >75%
- Viability [1, 5]: 50-75%
- Viability [3, 8]: >75%
- Viability [3, 9]: >75%
- Viability [3, 10]: 50-75%
- fold induction at 0.01 µM [4, 11]: 0.75 to 1
- fold induction at 0.1 µM [4, 11]: 1.75 to 2
- fold induction at 10 µM [4, 11]: 1.5 to 1.75
- Number of Gigasomes Produced ([4]; dose 10 nM): <35
- Number of Gigasomes Produced ([4]; dose 100 nM): 55-65
- Number of Gigasomes Produced ([4]; dose 10000 nM): 55-65
- fold induction at 0.01 µM ([2]; 24 h): 1.25 to 1.5
- fold induction at 0.1 µM ([2]; 24 h): 1.25 to 1.5
- fold induction at 1 µM ([2]; 24 h): 2 to 3
- Number of Gigasomes Produced [2, 6]: 150-175
- Number of Gigasomes Produced [2, 7]: 150-175
- Number of Gigasomes Produced [2, 5]: 250-275

SMILES: O=c1ncn2nc(Sc3ccc(F)cc3F)ccc2c1-c1c(Cl)cccc1Cl [Neflamapimod]
- Viability ([1]; human, 24 h, 10 nM): 100.0%
- Viability ([1]; human, 24 h, 100 nM): 100.0%
- Viability ([1]; human, 24 h, 1000 nM): >75%
- Viability ([1]; human, 24 h, 10000 nM): 100.0%
- Viability [3, 8]: 100%
- Viability [3, 9]: >75%
- Viability ([3]; neuronal cells, dose 1000 nM, 24 hours): 100%
- Viability [3, 10]: 100%
- fold induction at 0.01 µM [4, 11]: 0.75 to 1
- fold induction at 0.1 µM [4, 11]: 0.75 to 1
- fold induction at 1 µM [4, 11]: 0.5 to 0.75
- fold induction at 10 µM [4, 11]: 0.5 to 0.75
- Number of Gigasomes Produced ([4]; dose 10 nM): 30-35
- Number of Gigasomes Produced ([4]; dose 100 nM): 25-30
- Number of Gigasomes Produced ([4]; dose 1000 nM): 20-25
- Number of Gigasomes Produced ([4]; dose 10000 nM): 15-20
- fold induction at 0.01 µM ([2]; 24 h): 1 to 1.25
- fold induction at 0.1 µM ([2]; 24 h): 0.75 to 1
- fold induction at 1 µM ([2]; 24 h): 0.75 to 1
- fold induction at 10 µM ([2]; 24 h): 0.75 to 1
- Number of Gigasomes Produced [2, 12]: 120-135
- Number of Gigasomes Produced [2, 13]: 90-105
- Number of Gigasomes Produced [2, 14]: 75-90
- Number of Gigasomes Produced [2, 15]: 75-90

SMILES: CC(=O)O[C@H]1C(=O)[C@@]2(C)[C@H]([C@H](OC(=O)c3ccccc3)[C@]3(O)C[C@H](OC(=O)[C@H](O)[C@@H](NC(=O)c4ccccc4)c4ccccc4)C(C)=C1C3(C)C)[C@]1(OC(C)=O)CO[C@@H]1C[C@@H]2O [Paclitaxel]
- Viability ([1]; human, 24 h, 10 nM): >75%
- Viability ([3]; human, 24 h, 10 nM): >75%
- fold induction at 0.01 µM [4, 11]: 1.5 to 1.75
- Number of Gigasomes Produced ([4]; dose 10 nM): 55-65
- fold induction at 0.01 µM ([2]; 24 h): 1.5 to 1.75
- Number of Gigasomes Produced [2, 6]: 150-175

SMILES: O=C(O)c1cccnc1C(=O)O [Quinolinic acid]
- Viability [1, 7]: 100%
- fold induction at 0.1 µM ([2]; 24 h): 1 to 1.25
- Number of Gigasomes Produced [2, 7]: 150-175

SMILES: C[C@@H]1COCCN1c1cc(=O)n2c(n1)N(Cc1cncc(Cl)c1)[C@H](C(F)(F)F)CC2 [SAR405]
- Viability ([1]; human, 24 h, 1000 nM): 100.0%
- Viability ([1]; human, 24 h, 10000 nM): >75%
- fold induction at 1 µM ([2]; 24 h): 1 to 1.25
- fold induction at 10 µM ([2]; 24 h): 1 to 1.25
- Number of Gigasomes Produced [2, 5]: 150-175
- Number of Gigasomes Produced [2, 16]: 200-225

SMILES: CCN(CC)CCNC(=O)c1c(C)[nH]c(/C=C2\C(=O)Nc3ccc(F)cc32)c1C [Sunitinib]
- Viability ([1]; human, 24 h, 10000 nM): 50-75%
- fold induction at 10 µM ([2]; 24 h): 1.5 to 1.75
- Number of Gigasomes Produced [2, 16]: 200-225

SMILES: CCCCCCCCCCCCCCOc1ccc(C(=O)O)o1 [TOFA]
- Viability [1, 12]: >75%
- Viability [1, 13]: 100.0%
- Viability [1, 14]: >75%
- Viability [1, 15]: 100.0%
- Fold Change of Gigasomes Produced vs. DMSO [2, 12]: 1.0-1.25
- Number of Gigasomes Produced [2, 12]: 120-135
- Fold Change of Gigasomes Produced vs. DMSO [2, 13]: 1.0-1.25
- Number of Gigasomes Produced [2, 13]: 105-120
- Fold Change of Gigasomes Produced vs. DMSO [2, 14]: 0.75-1.0
- Number of Gigasomes Produced [2, 14]: 105-120
- Fold Change of Gigasomes Produced vs. DMSO [2, 15]: 0.75-1.0
- Number of Gigasomes Produced [2, 15]: 75-90

SMILES: COc1cc(O)c2c(c1)oc(=O)c1c3cc(O)c(O)cc3oc21 [Wedelolactone, reference compound]
- Viability ([1]; human, 24 h, 10 nM): 100.0%
- Viability ([1]; human, 24 h, 100 nM): 100.0%
- Viability ([1]; human, 24 h, 1000 nM): >75%
- Viability ([1]; human, 24 h, 10000 nM): >75%
- gigasome production, fold-change compared to DMSO ([4]; Oleuropein across doses, Wedelolactone 10,000 nM, 24 h): < 0.2
- fold induction at 0.01 µM ([2]; 24 h): 0.5 to 0.75
- fold induction at 0.1 µM ([2]; 24 h): 0.5 to 0.75
- fold induction at 1 µM ([2]; 24 h): 0.5 to 0.75
- fold induction at 10 µM ([2]; 24 h): < 0.25
- Number of Gigasomes Produced [2, 12]: 75-90
- Number of Gigasomes Produced [2, 13]: 75-90
- Number of Gigasomes Produced [2, 14]: 50-75
- Number of Gigasomes Produced [2, 15]: <20
- downregulation of gigasome production ([2]; cardiomyocytes, doses 10-10,000 nM, 24 h): dose-dependent downregulation
